Results reported in ChEMBL document CHEMBL4428124, “Advances in rationally designed dual inhibitors of HIV-1 reverse transcriptase and integrase” (Bioorg Med Chem, 2016).

How the values were obtained:
[1] = test system: Human immunodeficiency virus 1; assay: Antiviral activity against HIV1; type: functional, organism-based
[2] = target: Human immunodeficiency virus type 1 reverse transcriptase (Human immunodeficiency virus 1, UniProt Q72547); assay: Inhibition of recombinant HIV1 RT

EC50 [1] [µM]	IC50 [2] [µM]	Structure (SMILES)
164	113	O=C(c1ccc(Cl)cc1)c1nc(SCc2ccccc2)[nH]c(=O)c1O
36.5	> 200	O=c1[nH]c(SCc2ccccc2)nc(C(O)c2ccccc2)c1O (centres undefined)
36	95.1	O=C(c1ccccc1)c1nc(SCc2ccccc2)[nH]c(=O)c1O
175	> 200	O=C(c1ccc(Br)cc1)c1nc(SCc2ccccc2)[nH]c(=O)c1O
0.021		CC(C)Nc1cccnc1N1CCN(C(=O)c2cc3cc(NS(C)(=O)=O)ccc3[nH]2)CC1 [DELAVIRDINE]
